Here are results for three compounds from ChEMBL document CHEMBL5370624 (J Med Chem, 2023).

Series [1] addresses T1, Toll-like receptor 4 (Homo sapiens, UniProt O00206). Kind of series: Agonist activity at human TLR4 in human HEK-Blue hTLR4 cells assessed as NF-kappaB activation incubated for 48 hrs by SEAP reporter gene based Quanti-blue assay. Type of series: cell-based. A general note: In a reporter assay the amount or activity of a reporter protein is the signal.
Series [2] deals with T1, Toll-like receptor 4. Kind of series: Agonist activity at TLR4 in human PBMC cells assessed as induction of MIP-1beta release incubated for 20 hrs by ELISA. It counts as cell-based.
Series [3] is described as follows: Aqueous stability of the compound assessed as drug degradation at 2 to 8 degreeC and measured after 1 month by LC-MS analysis. As to conditions: buffer, 730 h; time 1 months. Type of series: physicochemical.
In series [4] the target is T1, Toll-like receptor 4. As to the kind of experiment: Agonist activity at TLR4 in human PBMC cells assessed as induction of IL-1beta release incubated for 20 hrs by ELISA. It counts as cell-based. Background: ELISA stands for enzyme-linked immunosorbent assay.
For series [5], the target named is T1, Toll-like receptor 4. As to the kind of experiment: Agonist activity at TLR4 in human PBMC cells assessed as induction of RANTES release incubated for 20 hrs by ELISA. Type of series: cell-based.
Series [6] concerns the target T2, Toll-like receptor 4 (Mus musculus, UniProt Q9QUK6).
T2 sequence (Q9QUK6 whole entry): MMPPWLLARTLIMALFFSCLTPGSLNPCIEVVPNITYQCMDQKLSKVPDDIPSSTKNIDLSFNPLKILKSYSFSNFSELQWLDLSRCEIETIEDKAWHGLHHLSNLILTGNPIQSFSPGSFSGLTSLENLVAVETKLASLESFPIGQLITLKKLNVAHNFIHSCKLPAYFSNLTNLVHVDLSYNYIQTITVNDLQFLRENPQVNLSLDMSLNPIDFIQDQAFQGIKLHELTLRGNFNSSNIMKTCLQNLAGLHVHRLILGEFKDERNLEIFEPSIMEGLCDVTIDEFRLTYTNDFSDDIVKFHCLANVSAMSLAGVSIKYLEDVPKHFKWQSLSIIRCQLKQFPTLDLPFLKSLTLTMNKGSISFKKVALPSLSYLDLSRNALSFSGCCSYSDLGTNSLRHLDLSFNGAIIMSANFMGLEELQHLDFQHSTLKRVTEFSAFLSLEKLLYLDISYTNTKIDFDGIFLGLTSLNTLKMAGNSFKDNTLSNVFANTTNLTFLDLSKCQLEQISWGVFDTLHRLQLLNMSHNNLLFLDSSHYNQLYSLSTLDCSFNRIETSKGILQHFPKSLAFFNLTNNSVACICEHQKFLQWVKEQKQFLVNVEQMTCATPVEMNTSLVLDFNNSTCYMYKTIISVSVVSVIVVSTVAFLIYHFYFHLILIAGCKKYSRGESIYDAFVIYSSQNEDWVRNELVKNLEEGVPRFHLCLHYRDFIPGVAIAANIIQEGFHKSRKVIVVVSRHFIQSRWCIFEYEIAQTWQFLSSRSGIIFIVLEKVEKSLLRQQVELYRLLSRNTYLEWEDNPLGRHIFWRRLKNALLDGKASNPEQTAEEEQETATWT
Kind of series: Agonist activity at mouse TLR4 in human HEK-Blue mTLR4 cells assessed as NF-kappaB activation incubated for 48 hrs by SEAP reporter gene based Quanti-blue assay. Type of series: cell-based.

Series [7] has as its target T1, Toll-like receptor 4. Kind of series: Agonist activity at TLR4 in human MONO-MAC-6 cells assessed as induction of MIP-1beta release incubated for 24 hrs by ELISA. It counts as cell-based.
Series [8] has as its target T1, Toll-like receptor 4. Kind of series: Agonist activity at TLR4 in human PBMC cells assessed as induction of TNFalpha release incubated for 20 hrs by ELISA. It counts as cell-based.
The target in series [9] is T2, Toll-like receptor 4. As to the kind of experiment: Agonist activity at TLR4 in mouse RAW264.7 cells assessed as induction of MIP-1beta release incubated for 24 hrs by ELISA. It counts as cell-based.
The species entered for series [10] is Mus musculus. As to the kind of experiment: Immuno-adjuvant activity in H3N2-split A/Victoria/210/2009 influenza virus-immunized BALB/c mouse model assessed as increase in influenza specific serum IgG1 titer level at 0.001 to 0.1 ug,IM and measured after 14 days by ELISA. It counts as functional, organism-based. As to conditions: dose 0.001-0.1 µg, time 14.0 day.

The nature of series [11]: Aqueous stability of the compound assessed as drug degradation at 40 degreeC and measured after 3 months by LC-MS analysis. As to conditions: buffer, 2190 h. Type of series: physicochemical.
In series [12] the test system is Mus musculus. As to the kind of experiment: Immuno-adjuvant activity in H3N2-A/HK/68 influenza virus-immunized BALB/c mouse model assessed as increase in survival rate at 1 ug,INH administered 48hrs prior to influenza challenge and measured after 18 days. It counts as functional. As to conditions: dose 1 µg, time 18 day.
Series [13] is described as follows: Toxicity in H3N2-split A/Victoria/210/2009 influenza virus-immunized BALB/c mouse model assessed as reactogenicity at 0.001 to 0.1 ug,IM administered on day 0 and 14 and measured after 28 days. As to conditions: in vivo, 672 h, dose 0.001-0.1 µg, time 28 day.
Series [14] deals with Mus musculus. As to the kind of experiment: Immuno-adjuvant activity in H3N2-split A/Victoria/210/2009 influenza virus-immunized BALB/c mouse model assessed as increase in influenza specific serum IgG2a titer level at 0.001 to 0.1 ug,IM administered on day 0 and 14 and measured after 28 days by ELISA. Type of series: functional, organism-based. As to conditions: dose 0.001-0.1 µg, time 28.0 day.

Series [15] deals with Mus musculus. As to the kind of experiment: Immuno-adjuvant activity in H3N2-A/HK/68 influenza virus-immunized BALB/c mouse model assessed as increase in survival rate at 10 ug,INH administered 48hrs prior to influenza challenge and measured after 18 days. Type of series: functional. As to conditions: dose 10 µg, time 18 day.
A short description of series [16]: Toxicity in H3N2-A/HK/68 influenza virus-immunized BALB/c mouse model assessed as body weight change at 1 to 10 ug,INH administered 48hrs prior to influenza challenge and measured after 18 days. As to conditions: in vivo, inhaled_or_intranasal, 432 h, dose 1-10 µg, time 18 day.
The test system of series [17] is Mus musculus. As to the kind of experiment: Immuno-adjuvant activity in H3N2-split A/Victoria/210/2009 influenza virus-immunized BALB/c mouse model assessed as increase in influenza specific serum IgG1 titer level at 0.001 to 0.1 ug,IM administered on day 0 and 14 and measured after 28 days by ELISA. It counts as functional, organism-based. As to conditions: dose 0.001-0.1 µg, time 28.0 day.

Series [18] in a line: Toxicity in H3N2-split A/Victoria/210/2009 influenza virus-immunized BALB/c mouse model assessed as abnormality at 0.001 to 0.1 ug,IM administered on day 0 and 14 and measured after 28 days. As to conditions: in vivo, 672 h, dose 0.001-0.1 µg, time 28 day.
A short description of series [19]: Toxicity in H3N2-A/HK/68 influenza virus-immunized BALB/c mouse model assessed as change in body temperature at 1 to 10 ug,INH administered 48hrs prior to influenza challenge and measured after 18 days. As to conditions: in vivo, inhaled_or_intranasal, 432 h, dose 1-10 µg, time 18 day.
Series [20] concerns Mus musculus. Kind of series: Immuno-adjuvant activity in H3N2-split A/Victoria/210/2009 influenza virus-immunized BALB/c mouse model assessed as increase in influenza specific serum IgG titer level at 0.001 to 0.1 ug,IM administered on day 0 and 14 and measured after 28 days by ELISA. It counts as functional, organism-based. As to conditions: dose 0.001-0.1 µg, time 28.0 day.

The species entered for series [21] is Mus musculus. As to the kind of experiment: Immuno-adjuvant activity in H3N2-split A/Victoria/210/2009 influenza virus-immunized BALB/c mouse model assessed as increase in influenza specific serum IgG titer level at 0.001 to 0.1 ug,IM and measured after 14 days by ELISA. It counts as functional, organism-based. As to conditions: dose 0.001-0.1 µg, time 14.0 day.

The nature of series [22]: Toxicity in H3N2-A/HK/68 influenza virus-immunized BALB/c mouse model assessed as disease index at 1 to 10 ug,INH administered 48hrs prior to influenza challenge and measured after 18 days. As to conditions: in vivo, inhaled_or_intranasal, 432 h, dose 1-10 µg, time 18 day.
Series [23] is filed under the species Mus musculus. As to the kind of experiment: Immuno-adjuvant activity in H3N2-split A/Victoria/210/2009 influenza virus-immunized BALB/c mouse model assessed as increase in influenza specific serum IgG2a titer level at 0.001 to 0.1 ug,IM and measured after 14 days by ELISA. Type of series: functional, organism-based. As to conditions: dose 0.001-0.1 µg, time 14.0 day.

Series [24] is described as follows: Aqueous stability of the compound assessed as drug degradation at 40 degreeC and measured after 12 months by RP-HPLC analysis. Type of series: physicochemical. As to conditions: aqueous solution, read-out: Drug degradation.
A short description of series [25]: Aqueous stability of the compound assessed as drug degradation at 2 to 8 degreeC and measured upto 12 months by LC-MS analysis. As to conditions: buffer, 8760 h. Type of series: physicochemical.
Series [26] is described as follows: Aqueous stability of the compound assessed as drug degradation at 2 to 8 degreeC and measured upto 12 months by RP-HPLC analysis. It counts as physicochemical. As to conditions: buffer, 8760 h.
Series [27] is described as follows: Aqueous stability of the compound assessed as drug degradation at 40 degreeC and measured upto 12 months by LC-MS analysis. Type of series: physicochemical. As to conditions: aqueous solution, read-out: Drug degradation.

Each structure is given as a SMILES string. The source made the active and inactive calls. No cut-off for these calls is given here.

T1 sequence (O00206 whole entry): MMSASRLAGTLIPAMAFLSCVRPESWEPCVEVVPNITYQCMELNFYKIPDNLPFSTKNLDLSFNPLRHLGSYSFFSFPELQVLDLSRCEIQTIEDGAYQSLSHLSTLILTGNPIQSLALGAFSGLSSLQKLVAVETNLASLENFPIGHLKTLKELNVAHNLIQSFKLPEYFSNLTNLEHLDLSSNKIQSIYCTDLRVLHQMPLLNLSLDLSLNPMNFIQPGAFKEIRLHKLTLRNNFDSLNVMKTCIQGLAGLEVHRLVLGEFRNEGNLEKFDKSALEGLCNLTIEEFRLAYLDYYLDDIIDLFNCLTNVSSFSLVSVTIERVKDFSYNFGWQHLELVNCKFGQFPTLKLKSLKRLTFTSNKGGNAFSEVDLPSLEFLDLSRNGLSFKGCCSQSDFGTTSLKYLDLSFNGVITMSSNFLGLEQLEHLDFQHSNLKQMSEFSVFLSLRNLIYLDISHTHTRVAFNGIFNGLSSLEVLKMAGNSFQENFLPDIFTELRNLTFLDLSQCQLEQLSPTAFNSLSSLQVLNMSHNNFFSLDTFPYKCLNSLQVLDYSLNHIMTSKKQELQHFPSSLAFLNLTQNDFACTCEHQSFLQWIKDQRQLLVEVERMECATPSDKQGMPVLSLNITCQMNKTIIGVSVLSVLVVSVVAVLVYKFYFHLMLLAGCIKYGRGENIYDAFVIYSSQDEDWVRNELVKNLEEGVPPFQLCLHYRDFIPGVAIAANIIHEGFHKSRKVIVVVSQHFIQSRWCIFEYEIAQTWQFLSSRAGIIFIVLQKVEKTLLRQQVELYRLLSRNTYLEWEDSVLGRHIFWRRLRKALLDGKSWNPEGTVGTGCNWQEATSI

For orientation: EC50 means the concentration that produces a half-maximal response. In the case of `CCCCCCCCCCC[C@H](CC(=O)NCCO[C@@H]1O[C@H](CO)[C@@H](OP(=O)(O)O)[C@H](OC(=O)C[C@@H](CCCCCCCCCCC)OC(=O)CCCCCCCCC)[C@H]1NC(=O)C[C@@H](CCCCCCCCCCC)OC(=O)CCCCCCCCC)OC(=O)CCCCCCCCC`, the EC50 worked out at 173 nM at Toll-like receptor 4 [1]; 1.94 nM on Toll-like receptor 4 [2]; 2.62 nM on Toll-like receptor 4 [4]; 1.26 nM on Toll-like receptor 4 [5]; 0.43 nM on Toll-like receptor 4 [6]; 6.75 nM at Toll-like receptor 4 [7]. In addition, the EC50 worked out at 53.7 nM at Toll-like receptor 4 [8] and 0.48 nM on Toll-like receptor 4 [9]. Besides, in [3], the Stability result was “Stable”.
For the compound `CCCCCCCCCCC[C@H](CC(=O)N[C@H]1[C@H](OC[C@H](NC(=O)C[C@@H](CCCCCCCCCCC)OCCCCCCCCCC)C(=O)O)O[C@H](CO)[C@@H](OP(=O)(O)O)[C@@H]1OC(=O)C[C@@H](CCCCCCCCCCC)OCCCCCCCCCC)OCCCCCCCCCC`, the Activity result is “Dose-Dependent Effect” in the series listed under Mus musculus [10]; “Non-Toxic” in [13]; “Non-Toxic” in series [16]; “Non-Toxic” in [18]; “Non-Toxic” in series [19]; “Dose-Dependent Effect” in the series listed under Mus musculus [21]. In [22], the Activity result was “Non-Toxic”. The EC50 at Toll-like receptor 4 [1] was determined as 0.93 nM; at Toll-like receptor 4 [2], 0.01 nM; at Toll-like receptor 4 [4] it was 0.028 nM; on Toll-like receptor 4 [5] it was 0.014 nM; on Toll-like receptor 4 [6] it was 0.005 nM; at Toll-like receptor 4 [7] it was 0.06 nM. In addition, the concentration giving a half-maximal response (EC50) on Toll-like receptor 4 [8] was found to be 0.26 nM; at Toll-like receptor 4 [9] it was 0.015 nM. Further, the Stability result in series [11] is “Stable”. The Survival in the series on Mus musculus [12] worked out at 60%; with Mus musculus [15] it was 100%. Also, the outcome in the series with Mus musculus [14], with Mus musculus [17] and with Mus musculus [20] was Active.
With `CCCCCCCCCCC[C@H](CC(=O)NCCO[C@@H]1O[C@H](CO)[C@@H](OS(=O)(=O)O)[C@@H](NC(=O)C[C@@H](CCCCCCCCCCC)OC(=O)CCCCCCCCC)[C@H]1NC(=O)C[C@@H](CCCCCCCCCCC)OC(=O)CCCCCCCCC)OC(=O)CCCCCCCCC.CCN(CC)CC`, the Activity result in the series filed under Mus musculus [10] is “Dose-Dependent Effect”; in series [13], “Non-Toxic”; in the series filed under Mus musculus [23] it was “Dose-Dependent Effect”; in [18], “Non-Toxic”; in the series filed under Mus musculus [21], “Dose-Dependent Effect”. Moreover, the concentration giving a half-maximal response (EC50) on Toll-like receptor 4 [1] is 449 nM; on Toll-like receptor 4 [2] it was 2.87 nM; at Toll-like receptor 4 [4], 20.4 nM; on Toll-like receptor 4 [5], 7.01 nM; at Toll-like receptor 4 [6] it was 2.64 nM; at Toll-like receptor 4 [7] it was 39.5 nM. Besides, the 50% effective concentration (EC50) at Toll-like receptor 4 [8] is 116 nM; on Toll-like receptor 4 [9] it was 0.31 nM. The figures for the degraded at 8760 h in [24] and in series [27] were less than 10% and 8%, respectively. The result in the series on Mus musculus [14], with Mus musculus [17] and in the series with Mus musculus [20] was Active. Moreover, the Stability result in series [25] and in [26] was “Stable” each time.
